For assay [1], the system named is whole cell CS levels in MCF-7. The assay can be described thus: Whole cell cholesterol sulfate quantification, MCF-7. It is filed as cell-based, human. Particulars: 72 hours. As to the method: (§1) General Whole Cell Cholesterol Sulfate Quantification. 60×15 mm tissue culture dishes were seeded with MCF-7 at 2×10^6 cells/dish or T47D at 1×10^6 cells per dish, 5 mL total media volume, and allowed to adhere overnight. Compounds of interest were dissolved in DMSO. Cells were treated with 25 μL 1.25 mM compound of interest stock (6.25 μM final compound concentration, 0.5% final DMSO concentration) or DMSO for 72 hours. To harvest, media was aspirated, and cells were washed once with PBS before detaching with trypsin. Trypsin was quenched with media. Cells were centrifuged at 300 xg for 3 minutes and supernatant was discarded. Cells were resuspended in media and counted using a Countess 3 automated cell counter (Thermo Fisher Scientific). 1.5×10^6 cells were collected, washed twice with 1 mL PBS, then pelleted and stored at −80° C. until lysis. Cell pellets were resuspended in 200 μL cold 70:30 methanol:water and placed on ice. Cell suspension was sonicated on ice (30%, 10 s on, 20 s off, 1 min total) and continued to be incubated on ice for 30 minutes. Lysate was clarified by centrifugation at 14,100 xg at 4° C. for 30 minutes. 100 μL of supernatant was transferred to an empty Eppendorf tube and submitted for LC-MS/MS quantification (UIUC Metabolomics Center), along with 5 mM cholesterol sulfate sodium salt standard.
as §1, with “Time Course Whole Cell” for “General Whole Cell”, “2×10^6 cells/dish per dish,” for “2×10^6 cells/dish or T47D at 1×10^6 cells per dish,”, “DMSO for 0 (harvested immediately), 4, 8, 24, 48, or 72 hours.” for “DMSO for 72 hours.”
Whole Cell Cholesterol Sulfate Quantification with Compound Removal. 60×15 mm tissue culture dishes were seeded with MCF-7 at 2×10^6 cells/dish, 5 mL total media volume, and allowed to adhere overnight. Compounds of interest were dissolved in DMSO. Cells were treated with 25 μL 1.25 mM compound of interest stock (6.25 μM final compound concentration, 0.5% final DMSO concentration) for 0 hours (harvested immediately) or 24 hours. Media was aspirated and replaced with 5 mL fresh media, then cells were either harvested (24 hour time point) or further incubated. To harvest, media was aspirated, and cells were washed once with PBS before detaching with trypsin. Trypsin was quenched with media. Cells were centrifuged at 300 xg for 3 minutes and supernatant was discarded. Cells were resuspended in media and counted using a Countess 3 automated cell counter (Thermo Fisher Scientific). 1.5×10^6 cells were collected, washed twice with 1 mL PBS, then pelleted and stored at −80° C. until lysis. Cell pellets were resuspended in 200 μL cold 70:30 methanol:water and placed on ice. Cell suspension was sonicated on ice (30%, 10 s on, 20 s off, 1 min total) and continued to be incubated on ice for 30 minutes. Lysate was clarified by centrifugation at 14,100 xg at 4° C. for 30 minutes. […]

In assay [2] the target is SULT2B1b (Homo sapiens (Human), UniProt O00204). The assay can be described thus: LC-MS/MS based in vitro assay (DHEA-sulfate formation). In kind it is biochemical. Conditions: 100 μM compound, 2 hours; mean±s.e.m., n=3. As to the method:
LC-MS/MS Based In Vitro Assay. Stock solutions of DHEA (5 mM in DMSO) and compound of interest (5 mM in DMSO) were prepared. […] SULT2B1b was diluted to 1.5 μg/μL in protein storage buffer then down to 0.8 μg/μL in 1× activity assay buffer. 30 μL of 0.8 μg/μL SULT2B1b was added to each reaction. Reactions were incubated for 2 hours at 37° C. with shaking at 250 rpm. To quench, 30 μL reaction mix was added to 30 μL ice cold 0.5% HCl in MeCN, then centrifuged at 13,000 xg at room temperature for 3 min. 50 μL supernatant was transferred to an empty Eppendorf tube and submitted for LC-MS/MS quantification (UIUC Metabolomics Center), along with 5 mM DHEA sulfate standard. Controls: Reaction mix made with DHEA and DMSO in place of compound of interest (DHEA control). […] General LC-MS/MS Quantification Method. Both DHEAS and CS samples were analyzed by 6500 QTRAP (Sciex, Redwood City, CA) liquid chromatography-tandem mass spectrometry. […] The flow rate was 0.3 mL/min. […] The source temperature was 400° C. […] Cholesterol-sulfate and DHEA-sulfate were detected by multiple reaction monitoring (MRM) at m/z 465→97.0 and 367.0→97.0 respectively. Software Analyst 1.7.1 ([…]) was used for data acquisition and analysis.

The subject of assay [3] is free cholesterol levels in MCF-7. As to the kind of experiment: Whole cell cholesterol assay. Conditions: MCF-7, 6.25 μM, 72 hours. In kind it is cell-based, human. The protocol:
Whole Cell Cholesterol Assay. Assay was run according to manufacturer's instructions. Briefly, 5000 MCF-7 cells were plated in 99 μL media in a 96-well plate and allowed to adhere overnight before DMSO solutions of compounds were added to each well. Final concentration of DMSO in each well is 1%, final volume: 100 μL. At the end of 72 hours, media was aspirated, and cells were washed twice with 100 μL PBS. 50 μL of cholesterol lysis solution was added and cells were incubated for 30 minutes at 37° C. 50 μL of sample was then transferred to a 96-well white walled assay plate. 50 μL of cholesterol detection reagent was added to all wells and incubated at room temperature for 1 hour. Luminescence was read using a SpectraMax M3 plate reader (Molecular Devices). Cholesterol levels were determined by use of a cholesterol standard curve.

The values that follow come from US20240400606A1, “SMALL MOLECULE ACTIVATORS OF THE IMMUNE SYSTEM” (THE BOARD OF TRUSTEES OF THE UNIVERSITY OF ILLINOIS, priority 2021, published 2024).

SULT2B1b, sequence (O00204 whole entry): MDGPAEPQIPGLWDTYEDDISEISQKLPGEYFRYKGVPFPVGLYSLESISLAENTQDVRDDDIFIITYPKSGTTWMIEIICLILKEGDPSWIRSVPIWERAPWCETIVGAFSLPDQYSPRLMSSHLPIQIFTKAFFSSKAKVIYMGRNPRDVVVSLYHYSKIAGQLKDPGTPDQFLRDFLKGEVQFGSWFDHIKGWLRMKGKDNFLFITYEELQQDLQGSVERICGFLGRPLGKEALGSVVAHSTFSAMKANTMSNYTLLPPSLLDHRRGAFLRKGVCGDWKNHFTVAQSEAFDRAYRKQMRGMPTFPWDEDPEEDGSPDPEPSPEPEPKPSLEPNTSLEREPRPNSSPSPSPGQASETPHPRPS

In the case of `O=CC1(C2(C=O)c3ccccc3-c3ccccc32)c2ccccc2-c2ccccc21` [Raptinal, reference compound], in assay [1] (MCF-7, sub-lethal 0.156 μM), the “whole cell CS levels vs DMSO” value is “no significant difference”. Usually inhibition stands for the drop in the measured response relative to a control, in per cent. A higher inhibition goes with strong suppression. Compound `C[C@]12CCC(=O)N(Cc3ccc(Br)nc3)C1=CC[C@@H]1[C@@H]2C(=O)C[C@]2(C)C(=O)CC[C@@H]12` [Compound 11, (4aR,4bS,6aS,9aS,9bS)-1-((6-bromopyridin-3-yl)methyl)-4a,6a-dimethyl-3,4,4a,6,6a,8,9,9a,9b,10-decahydro-1H-indeno[5,4-f]quinoline-2,5,7(4bH)-trione] yielded an inhibition at 100 µM in assay [2] of 53 ± 1%. `C[C@]12CCC(=O)N(Cc3ccccc3)C1=CC[C@@H]1[C@@H]2C(=O)C[C@]2(C)C(=O)CC[C@@H]12` [Compound 5, (4aR,4bS,6aS,9aS,9bS)-1-benzyl-4a,6a-dimethyl-3,4,4a,6,6a,8,9,9a,9b,10-decahydro-1H-indeno[5,4-f]quinoline-2,5,7(4bH)-trione]: the inhibition at 100 µM in assay [2] turned out to be 48 ± 2%. In turn, `C[C@]12CCC(=O)N(CC3CC3)C1=CC[C@@H]1[C@@H]2C(=O)C[C@]2(C)C(=O)CC[C@@H]12` [Compound 13, (4aR,4bS,6aS,9aS,9bS)-1-(cyclopropylmethyl)-4a,6a-dimethyl-3,4,4a, 6,6a, 8,9,9a, 9b,10-decahydro-1H-indeno[5,4-f]quinoline-2,5,7(4bH)-trione] gave an inhibition at 100 µM in assay [2] of 27 ± 2%. Still for that read-out and setting: as for `C[C@]12CCC(=O)N(Cc3ccc(F)cc3)C1=CC[C@@H]1[C@@H]2C(=O)C[C@]2(C)C(=O)CC[C@@H]12` [Compound 4, (4aR,4bS,6aS,9aS,9bS)-1-(4-fluorobenzyl)-4a,6a-dimethyl-3,4,4a,6,6a,8,9,9a,9b,10-decahydro-1H-indeno[5,4-f]quinoline-2,5,7(4bH)-trione], the figure is 55 ± 2%. For the compound `C[C@]12CCC(=O)N(Cc3ccc(Cl)cc3)C1=CC[C@@H]1[C@@H]2C(=O)C[C@@]2(C)[C@H]1CCC21OCCO1` [Compound 10, (4aR,4bS,6aS,9aS,9bS)-1-(4-chlorobenzyl)-4a,6a-dimethyl-1,3,4,4a,4b,6,6a,8,9,9a,9b,10-dodecahydrospiro[indeno[5,4-f]quinoline-7,2′-[1,3]dioxolane]-2,5-dione], the inhibition at 100 µM in assay [2] was found to be 45 ± 1%. In assay [2], `C[C@]12CCC(=O)N(Cc3ccc(Cl)cc3)C1=CC[C@@H]1[C@@H]2CC[C@]2(C)C(=O)CC[C@@H]12` [Compound 9, (4aR,4bS,6aS,9aS,9bR)-1-(4-chlorobenzyl)-4a,6a-dimethyl-3,4,4a,4b,5,6,6a,8,9,9a,9b,10-dodecahydro-1H-indeno[5,4-f]quinoline-2,7-dione] came in with an inhibition at 100 µM of 53 ± 1%. On to `CN1C(=O)CC[C@@]2(C)C1=CC[C@@H]1[C@@H]2C(=O)C[C@]2(C)C(=O)CC[C@@H]12` [Compound 6, (4aR,4bS,6aS,9aS,9bS)-1,4a,6a-trimethyl-3,4,4a,6,6a,8,9,9a,9b,10-decahydro-1H-indeno[5,4-f]quinoline-2,5,7(4bH)-trione], for which the “free cholesterol levels vs DMSO” value in assay [3] is reported as “no statistical difference”. In assay [1] (MCF-7, 6.25 μM compound), the “whole cell CS levels vs DMSO” value is on record as “not seen”. Further, in assay [2], the inhibition at 100 µM is 8.8 ± 0.4%. In the case of `C[C@]12CCC(=O)N(Cc3ccccc3Cl)C1=CC[C@@H]1[C@@H]2C(=O)C[C@]2(C)C(=O)CC[C@@H]12` [Compound 8, (4aR,4bS,6aS,9aS,9bS)-1-(2-chlorobenzyl)-4a,6a-dimethyl-3,4,4a,6,6a,8,9,9a,9b,10-decahydro-1H-indeno[5,4-f]quinoline-2,5,7(4bH)-trione], in assay [2], the inhibition at 100 µM came out at 46 ± 1%. `C[C@]12CCC(=O)N(Cc3ccc4ccccc4c3)C1=CC[C@@H]1[C@@H]2C(=O)C[C@]2(C)C(=O)CC[C@@H]12` [Compound 12, (4aR,4bS,6aS,9aS,9bS)-4a,6a-dimethyl-1-(naphthalen-2-ylmethyl)-3,4,4a,6,6a,8,9,9a,9b,10-decahydro-1H-indeno[5,4-f]quinoline-2,5,7(4bH)-trione] returned an inhibition at 100 µM in assay [2] of 52 ± 10%. The same measure, in the same setting: as for `C[C@]12CCC(=O)N(CC3CCCCC3)C1=CC[C@@H]1[C@@H]2C(=O)C[C@]2(C)C(=O)CC[C@@H]12` [Compound 14, (4aR,4bS, 6aS, 9aS, 9bS)-1-(cyclohexylmethyl)-4a, 6a-dimethyl-3,4,4a, 6,6a, 8,9,9a, 9b,10-decahydro-1H-indeno[5,4-f]quinoline-2,5,7(4bH)-trione], the figure is 48 ± 2%; as for `C[C@]12CCC(=O)N(Cc3cccc(Cl)c3)C1=CCC1[C@@H]2C(=O)C[C@]2(C)C(=O)CC[C@@H]12` (stereo partly drawn) [Compound 7, (4aR,4bS,6aS,9aS,9bS)-1-(3-chlorobenzyl)-4a,6a-imethy-3,4,4a,6,6a,8,9,9a,9b,10-decahydro-1H-indeno[5,4-f]quinoline-2,5,7(4bH)-trione], 69.8 ± 0.5%.
